We go through two compounds from US20130023540A1, “TREATMENT OF MASTITIS” (BAYER HEALTHCARE AG, priority 2004, published 2013).

The data set in a line: investigation of the substances having an antibacterial effect in bovine milk following parenteral administration of enrofloxacin. It is filed as in vivo.

For `CCN1CCN(c2cc3c(cc2F)c(=O)c(C(=O)O)cn3C2CC2)CC1` [enrofloxacin, 1-cyclopropyl-7-(4-ethyl-1-piperazinyl)-6-fluoro-1,4-dihydro-4-oxo-3-quinolone-carboxylic acid], the “antibacterial activity in bovine milk (enrichment of active compounds as compared with the serum concentration)” value is listed as “high antibacterial activity” and the “proportion in the milk” value was roughly 10%.

`O=C(O)c1cn(C2CC2)c2cc(N3CCNCC3)c(F)cc2c1=O` [ciprofloxacin, 1-cyclopropyl-7-(1-piperazinyl)-6-fluoro-1,4-dihydro-4-oxo-3-quinolonecarboxylic acid]: the “proportion in the milk” value is roughly 90%.
